Reference: EPA's ToxRefDB 2

Columns and labels:
primate [1] = settings: Sub-acute repeat dose toxicity; Oral; Gavage/Intubation; dose end: 5 day; group: systemic; systemic / clinical chemistry / aspartate aminotransferase (ast/sgot) / aspartate aminotransferase (ast/sgot) + systemic / clinical …
rat [2] = settings: Sub-acute repeat dose toxicity; Oral; Gavage/Intubation; dose end: 4 day; group: systemic; systemic / in life observation / clinical signs / impaired reflex, nos
rat [3] = settings: Sub-acute repeat dose toxicity, Oral, Gavage/Intubation, dose end: 7 day, group: systemic
primate [4] = settings: Sub-acute repeat dose toxicity; Oral; Gavage/Intubation; dose end: 5 day; group: systemic; systemic / in life observation / food consumption / food consumption + systemic / in life observation / clinical signs / emesis + systemic…
rat [5] = settings: Sub-acute repeat dose toxicity, Oral, Gavage/Intubation, dose end: 7 day, group: systemic; remark: listed apart in the source
rat [6] = settings: Sub-acute repeat dose toxicity, Oral, Gavage/Intubation, dose end: 28 day, group: systemic
rat [7] = settings: Fertility (Segment I), sprague dawley, Oral, Gavage/Intubation, dose end: 7 GD
rat [8] = settings: Sub-acute repeat dose toxicity; sprague dawley; Oral; Gavage/Intubation; dose end: 28 day; group: systemic; systemic / in life observation / body weight / body weight gain + systemic / in life observation / food consumption / food consumption + …
rat [9] = settings: Prenatal developmental toxicity study; sprague dawley; Oral; Gavage/Intubation; dose end: 17 GD; group: maternal; systemic / in life observation / body weight / body weight + systemic / in life observation / body weight / body weight gain + systemic / in…
primate [10] = settings: Sub-acute repeat dose toxicity, macaque, Oral, Gavage/Intubation, dose end: 1 month, group: systemic
rat [11] = settings: Prenatal developmental toxicity study; sprague dawley; Oral; Gavage/Intubation; dose end: 17 GD; group: maternal; systemic / in life observation / body weight / body weight gain + systemic / in life observation / clinical signs / fur (altered appearance…
primate [12] = settings: Chronic toxicity, macaque, Oral, Gavage/Intubation, dose end: 6 month, group: systemic
dog = settings: Sub-acute repeat dose toxicity, beagle, Oral, Capsule, dose end: 1 month, group: systemic
rat [13] = settings: Chronic toxicity, sprague dawley, Oral, Gavage/Intubation, dose end: 6 month, group: systemic
rabbit = settings: Prenatal developmental toxicity study, new zealand white, Oral, Gavage/Intubation, dose end: 19 GD
[14] = systemic / hematology / blood clotting / blood clotting - prothrombin time + systemic / hematology / lymphocyte / lymphocyte + systemic / in…
[15] = systemic / hematology / blood clotting / blood clotting - prothrombin time + systemic / organ weight / heart / relative to body weight + …
[16] = systemic / hematology / blood clotting / blood clotting - prothrombin time + systemic / organ weight / liver / absolute + systemic / organ …
[17] = systemic / hematology / blood clotting / blood clotting - activated partial thromboplastin time + systemic / hematology / blood clotting / …
[18] = systemic / hematology / mean corpuscular hemoglobin (mch) / mean corpuscular hemoglobin (mch) + systemic / hematology / mean corpuscular …
[19] = group: maternal, reproductive / reproductive performance / estrous cycle / abnormal
[20] = group: parental, systemic / in life observation / body weight / body weight gain + systemic / in life observation / clinical signs / piloerection + systemic…
[21] = group: parental, systemic / in life observation / body weight / body weight gain + systemic / in life observation / food consumption / food consumption + …
[22] = systemic / in life observation / clinical signs / [other] + systemic / in life observation / clinical signs / defecation (diarrhea) + …
[23] = systemic / in life observation / food consumption / food consumption
[24] = systemic / clinical chemistry / alanine aminotransferase (alt/sgpt) / alanine aminotransferase (alt/sgpt)
[25] = systemic / clinical chemistry / alanine aminotransferase (alt/sgpt) / alanine aminotransferase (alt/sgpt) + systemic / pathology microscopic…
[26] = systemic / clinical chemistry / alanine aminotransferase (alt/sgpt) / alanine aminotransferase (alt/sgpt) + systemic / clinical chemistry / …
[27] = systemic / clinical chemistry / [other] / [other] + systemic / clinical chemistry / phosphorus / phosphate + systemic / clinical chemistry…
[28] = systemic / clinical chemistry / [other] / [other] + systemic / clinical chemistry / phosphorus / phosphate + systemic / in life observation…
[29] = group: developmental, developmental / developmental malformation / eye / open eye
[30] = group: maternal, systemic / in life observation / body weight / body weight gain + systemic / in life observation / food consumption / food consumption + …
[31] = group: maternal, systemic / pathology gross / pancreas / irregular surface + systemic / pathology gross / pancreas / reduced size

`O=C(CO)N1CCC(c2[nH]nc(-c3ccc(Cl)cc3F)c2-c2ccncn2)CC1` was tested, and the LEL (primate [1]) was 600 mg/kg/day, the LOAEL (primate [1]) was > 600 mg/kg/day and the NEL (primate [1]) was < 600 mg/kg/day. The NOAEL (primate [1]) was ≥ 600 mg/kg/day, the LEL (rat [2]) was 50 mg/kg/day and the LOAEL (rat [2]) was > 2000 mg/kg/day. For the same molecule, the NEL (rat [2]) was < 50 mg/kg/day, the NOAEL (rat [2]) was ≥ 2000 mg/kg/day and the LOAEL (rat [3]; [14]) was > 2000 mg/kg/day. For the same molecule, the NOAEL (rat [3]; [14]) was ≥ 2000 mg/kg/day, the LEL (rat [3]; [15]) was 200 mg/kg/day and the NEL (rat [3]; [15]) was < 200 mg/kg/day. For the same molecule, the LEL (primate [4]) was 600 mg/kg/day, the LOAEL (primate [4]) was > 600 mg/kg/day and the NEL (primate [4]) was < 600 mg/kg/day. The NOAEL (primate [4]) was ≥ 600 mg/kg/day, the LOAEL (rat [5]; [15]) was > 2000 mg/kg/day and the NOAEL (rat [5]; [15]) was ≥ 2000 mg/kg/day. The LEL (rat [5]; [16]) was 200 mg/kg/day, the NEL (rat [5]; [16]) was < 200 mg/kg/day and the LOAEL (rat [6]; [17]) was > 2000 mg/kg/day. The NOAEL (rat [6]; [17]) was ≥ 2000 mg/kg/day, the LEL (rat [6]; [18]) was 20 mg/kg/day and the NEL (rat [6]; [18]) was < 20 mg/kg/day.
For `COc1cc(-c2nc(NC(=O)c3cc4cc(C)cc(C)c4n3CC(=O)O)sc2CCC2CCCCC2)c(OC)cc1Cl.O=C(O)C(F)(F)F`, the LEL (rat [7]; [19]) was 200 mg/kg/day, the LOAEL (rat [7]; [19]) was > 1000 mg/kg/day and the NEL (rat [7]; [19]) was 50 mg/kg/day. For the same molecule, the NOAEL (rat [7]; [19]) was ≥ 1000 mg/kg/day, the LOAEL (rat [7]; [20]) was > 1000 mg/kg/day and the NOAEL (rat [7]; [20]) was ≥ 1000 mg/kg/day. The LEL (rat [7]; [21]) was 50 mg/kg/day, the NEL (rat [7]; [21]) was < 50 mg/kg/day and the LEL (rat [8]) was 1 mg/kg/day. The LOAEL (rat [8]) was > 30 mg/kg/day, the NEL (rat [8]) was < 1 mg/kg/day and the NOAEL (rat [8]) was ≥ 30 mg/kg/day. For the same molecule, the LEL (rat [9]) was 250 mg/kg/day, the LOAEL (rat [9]) was > 500 mg/kg/day and the NEL (rat [9]) was < 250 mg/kg/day. The NOAEL (rat [9]) was ≥ 500 mg/kg/day, the LOAEL (primate [10]; [22]) was 5 mg/kg/day and the NOAEL (primate [10]; [22]) was 1 mg/kg/day. The LEL (primate [10]; [23]) was 1 mg/kg/day, the NEL (primate [10]; [23]) was < 1 mg/kg/day and the LEL (rat [11]) was 50 mg/kg/day. The LOAEL (rat [11]) was > 1000 mg/kg/day, the NEL (rat [11]) was < 50 mg/kg/day and the NOAEL (rat [11]) was ≥ 1000 mg/kg/day. For the same molecule, the LEL (primate [12]; [24]) was 0.6 mg/kg/day, the NEL (primate [12]; [24]) was < 0.6 mg/kg/day and the LOAEL (primate [12]; [25]) was 3 mg/kg/day. For the same molecule, the NOAEL (primate [12]; [25]) was 0.6 mg/kg/day, the LOAEL (dog; [26]) was > 25 mg/kg/day and the NOAEL (dog; [26]) was ≥ 25 mg/kg/day. The LEL (dog; [25]) was 1 mg/kg/day, the NEL (dog; [25]) was < 1 mg/kg/day and the LOAEL (rat [13]; [27]) was > 250 mg/kg/day. For the same molecule, the NOAEL (rat [13]; [27]) was ≥ 250 mg/kg/day, the LEL (rat [13]; [28]) was 1 mg/kg/day and the NEL (rat [13]; [28]) was < 1 mg/kg/day. The LEL (rabbit; [29]) was 10 mg/kg/day, the LOAEL (rabbit; [29]) was 10 mg/kg/day and the NEL (rabbit; [29]) was 3 mg/kg/day. The NOAEL (rabbit; [29]) was 3 mg/kg/day, the LOAEL (rabbit; [30]) was > 10 mg/kg/day and the NOAEL (rabbit; [30]) was ≥ 10 mg/kg/day. For the same molecule, the LEL (rabbit; [31]) was 0.5 mg/kg/day and the NEL (rabbit; [31]) was < 0.5 mg/kg/day.
